≈ marks a conversion by molar mass, not a printed value.

Experimental findings from US10167299B2, “1-(3-aminopropyl) substituted cyclic amine compounds, preparation method therefor, and pharmaceutical compositions and uses thereof” (SHANGHAI INSTITUTE OF MATERIA MEDICA, CHINESE ACADEMY OF …, priority 2013, dated 2019) are described below.

Data set [1] can be described thus: Cytotoxicity (CC50) in TZM-bl cells. It counts as cell-based. The settings on record: human; TZM-bl cells (Table 3); read-out: CC50.
The subject of data set [2] is HIV-1SF162 virus strain. Briefly: Inhibition of viral replication in PBMC infected with HIV-1SF162. It counts as cell-based. The settings on record: PBMC cells infected with HIV-1SF162.
The next data set concerns HIV-1KM018 virus strain. The data set can be described thus: Inhibition of viral replication in PBMC infected with HIV-1KM018. Format: cell-based. The conditions noted are these: PBMC cells infected with HIV-1KM018.
Data set [3] relates to HIV-1Ba-L virus strain. Briefly: Inhibition of viral replication in PBMC infected with HIV-1Ba-L. Format: cell-based. The settings on record: PBMC cells infected with HIV-1Ba-L. The gist of the method:
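PBMC stimulated with PHA for 72 h (5×10^6/ml) were infected at MOI 0.01 and cultured 7 days at 37 °C with compound. Replication was measured by p24 antigen-capture ELISA of Triton X-100-lysed supernatant.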

Data set [4] is described as follows: Toxicity test of compounds on PBMC cells (MTT). Format: cell-based. The settings on record: human, PHA stimulated PBMC; PBMC cells (Table 4). The gist of the method:
(§1)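 MTT read-out (570 nm, 630 nm reference) after 3-day culture of HOS-CD4-CCR5 cells at 4×10^5/ml or 7-day culture of PHA-activated PBMC at 5×10^6/ml, with fresh medium added on day 3. Compounds were tested as six 5-fold dilutions in triplicate, in 10% FBS medium at 37 °C, 5% CO2.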

Data set [5] has as its system HIV-1Ba-L virus strain. Briefly: Inhibition of viral replication in HOS-CD4-CCR5 cells infected with HIV-1Ba-L. It counts as cell-based. The settings on record: Human immunodeficiency virus 1; HOS-CD4+-CCR5 cells infected with HIV-1Ba-L; read-out: EC50. The gist of the method:
(§2)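 Replication was quantified by p24 capture ELISA on supernatants collected after 3-day culture of infected HOS-CD4-CCR5 cells. Compound (six 5-fold dilutions from 1 μM, triplicates) was added 2 h before a 1 h infection with HIV-1SF162 or HIV-1Ba-L. Free virus was washed out and drug restored afterwards.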

Data set [6] has as its system HIV-1SF162 virus strain. The data set can be described thus: Inhibition of viral replication in HOS-CD4-CCR5 cells infected with HIV-1SF162. Format: cell-based. The settings on record: HOS-CD4+-CCR5 cells infected with HIV-1SF162. The gist of the method: as §2
Data set [7] in a line: Toxicity test of compounds on HOS-CD4-CCR5 cells (MTT). The conditions noted are these: human; HOS-CD4+-CCR5 cells (Table 7). Format: cell-based. The gist of the method: as §1
Another data set concerns the target CYP1A2 (Homo sapiens (Human), UniProt P05177). The data set can be described thus: CYP450 inhibition activity assay (Vivid kit) CYP1A2. It counts as in vitro ADME. The conditions noted are these: CYP450 subtype (μM) 1A2 (IC50).
Another data set in a line: in vivo. The conditions noted are these: male, rat.
In data set [8] the test system is HIV-1SF162 virus strain. The data set can be described thus: Inhibition activity on TZM-bl cells infected with HIV-1SF162.
The mark [9] stands for this setting: Human immunodeficiency virus 1, read-out: EC50.

Sequence of CYP1A2 (P05177 whole entry): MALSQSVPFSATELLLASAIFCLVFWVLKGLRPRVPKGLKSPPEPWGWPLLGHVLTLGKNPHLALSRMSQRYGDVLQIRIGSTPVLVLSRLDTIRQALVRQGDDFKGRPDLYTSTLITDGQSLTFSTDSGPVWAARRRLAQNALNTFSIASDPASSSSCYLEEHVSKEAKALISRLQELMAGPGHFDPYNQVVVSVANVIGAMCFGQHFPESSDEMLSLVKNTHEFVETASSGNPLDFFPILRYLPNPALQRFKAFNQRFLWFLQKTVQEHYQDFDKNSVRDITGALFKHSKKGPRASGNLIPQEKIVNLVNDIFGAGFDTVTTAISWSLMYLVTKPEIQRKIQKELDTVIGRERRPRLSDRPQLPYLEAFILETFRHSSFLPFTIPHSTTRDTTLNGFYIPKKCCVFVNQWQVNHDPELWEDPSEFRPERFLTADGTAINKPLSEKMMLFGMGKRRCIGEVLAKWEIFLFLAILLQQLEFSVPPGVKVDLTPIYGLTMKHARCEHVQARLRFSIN
Protocol for CYP1A2: VividR CYP450 Screening Kits can be used to evaluate the effects on CYP450 subtypes (CYP1A2, CYP2D6, CYP2C9, CYP2C19, CYP3A4-T and CYP3A4-M) and the substrate VividR in the kit can be metabolizd to a product which can emit strong fluorescence in an aqueous solution by specific CYP450 enzymes.
The compounds to be tested and positive compound were added to corresponding wells and DMSO was added to control wells.
CYP450 enzyme was added to the compounds to be tested, positive compound and DMSO control wells. The enzyme dilution was used to replace enzyme and added to DMSO wells as test background. The mixture was vibrated and mixed for 1 minute, and then incubated at room temperature for 20 minutes.
NADP^+ regeneration system and the substrate were added to initiate the reaction and incubated at room temperature for 60 minutes.
Protocol for in vivo: The administration volume was 10 mL/kg and drug was formulated with DMSO/Tween 80/physiological saline (5:5:90, v/v/v). […] 2 h after dosing, the rats ate together.
At above time points, 0.3 ml of venous blood was taken from retrobulbar venous plexus of the rat and loaded into EDTA-2K anticoagulative tube. After centrifuged at 11000 rpm for 5 mm, the plasma was separated and frozen at −20° C. in a refrigerator.
The concentration of each compound in rat plasma was determined by LC/MS/MS.
The pharmacokinetic parameters after administration were calculated by using non-compartment model of WinNonlin 5.3 software (Pharsight Corporation, USA).

As a reminder, the CC50 is the concentration that lowers cell viability or growth by half. The EC50 is the concentration at which the effect is half-maximal. One may read the IC50 as the point on the concentration scale where inhibition reaches its midpoint. A high value points to lower potency. The half-life is the time needed for the level to fall by half in the phase considered. Regarding `Cc1nnc(C(C)C)n1C1CCN(CC[C@H](NC(=O)C2CCCC2)c2cccs2)CC1` [Compound 17, N-[(1S)-3-[4-(3-isopropyl-5-methyl-4H-1,2,4-triazol-4-yl)-piperidin-1-yl]-1-(thiophen-2-yl)propyl]cyclopentane-1-carboxamide], the CC50 in data set [1] was more than 200 µg/mL. The EC50 in the data set on HIV-1SF162 virus strain [2] (setting [9]) is 0.0413 µg/mL (≈ 0.0931 µM); in the data set on HIV-1KM018 virus strain (setting [9]), more than 1 µg/mL; with HIV-1Ba-L virus strain [3] (setting [9]) it was 0.848 µg/mL (≈ 1.91 µM); in the data set on HIV-1Ba-L virus strain [5], 0.0155 µg/mL (≈ 0.035 µM); with HIV-1SF162 virus strain [6] (setting [9]), 0.0509 µg/mL (≈ 0.115 µM); with HIV-1SF162 virus strain [8] (Human immunodeficiency virus 1, TZM-bl) it was 0.0129 µg/mL (≈ 0.0292 µM). Moreover, the “therapeutic index (TI)” value was 10621 in the data set on HIV-1SF162 virus strain [2]; less than 438.6 in the data set on HIV-1KM018 virus strain; 438.6 in the data set with HIV-1Ba-L virus strain [3]; 8632 in the data set on HIV-1SF162 virus strain [6]; more than 15444.02 with HIV-1SF162 virus strain [8] (TZM-bl cells infected with HIV-1SF162). Also, the 50% cytotoxic concentration (CC50) at 7 days in [4] was 439 µg/mL (≈ 989 µM). Further, the half-maximal cytotoxic concentration (CC50) at 3 days in [7] came out at 439 µg/mL (≈ 990 µM). In addition, the IC50 against CYP1A2 was more than 25 µM. For the same compound, the half-life is 2.22 h in the data set “in vivo” (iv, 10 mg/kg) and 1.78 h in “in vivo” (po, 20 mg/kg). Besides, the “cytotoxicity in vitro and therapeutic index in words, versus positive control compound” value with HIV-1SF162 virus strain [8] (TZM-bl cells infected with HIV-1SF162, conclusion from Table 3) was “comparable with the positive control compound”.
